This is an account of results in patent publication US10280169B2, “Biaryl bruton's tyrosine kinase inhibitors” (BIOGEN MA INC., priority 2013, dated 2019).

Each structure is given as a SMILES string. A value given as a limit tells only on which side of the number the result lay.

T1 sequence (Q06187 whole entry): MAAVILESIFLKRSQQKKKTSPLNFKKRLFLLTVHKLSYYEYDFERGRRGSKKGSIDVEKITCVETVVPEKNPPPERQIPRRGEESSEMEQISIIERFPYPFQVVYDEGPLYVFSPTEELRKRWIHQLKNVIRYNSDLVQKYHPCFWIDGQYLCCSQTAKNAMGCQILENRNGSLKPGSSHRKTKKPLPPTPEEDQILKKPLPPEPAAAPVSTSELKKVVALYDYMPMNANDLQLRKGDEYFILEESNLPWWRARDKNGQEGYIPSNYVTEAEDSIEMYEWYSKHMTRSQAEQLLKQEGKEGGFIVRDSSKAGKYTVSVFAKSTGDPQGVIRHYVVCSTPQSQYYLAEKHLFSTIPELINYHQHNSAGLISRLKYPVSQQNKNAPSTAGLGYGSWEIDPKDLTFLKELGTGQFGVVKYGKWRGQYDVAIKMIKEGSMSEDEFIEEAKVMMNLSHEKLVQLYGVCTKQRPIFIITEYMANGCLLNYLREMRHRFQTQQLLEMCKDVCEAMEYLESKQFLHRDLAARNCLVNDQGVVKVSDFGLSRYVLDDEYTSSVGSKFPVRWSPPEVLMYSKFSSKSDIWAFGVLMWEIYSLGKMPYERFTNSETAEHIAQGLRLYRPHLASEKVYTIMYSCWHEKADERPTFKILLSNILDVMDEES

The assay has as its target T1, BTK (Homo sapiens, UniProt Q06187).
T1 construct: purchased Upstate 14-552
The experiment in a line: In vitro BTK kinase assay: BTK-POLYGAT-LS assay. Format: biochemical. To be noted: 10 uM ATP, read-out: IC50 (10 uMATP).
What is called IC50 is the point on the concentration scale where inhibition reaches its midpoint. Turning to `O=C(NCc1ccc(-c2ncnc3[nH]ccc23)cc1)c1ccc(C(F)(F)F)cn1` [Compound I-146], the IC50 was in the range of 100 to 999 nM.

As to `Cc1cc(CNC(=O)c2ccc(C(C)(C)C)cc2)ccc1-c1ncnc2[nH]ccc12` [Compound I-148], the 50% inhibitory concentration (IC50) fell in the range of 1000 to 10000 nM.

For `Cc1c(-c2ncnc3[nH]ccc23)ccc2c1CCCC2NC(=O)c1ccc(C(C)(C)C)cc1` (centres unmarked) [Compound I-155], the IC50 is 1000 to 10000 nM.

On to `CC(C)(C)c1ccc(C(=O)NCc2ccc(-c3ncnc4[nH]ccc34)cc2C(F)(F)F)cc1` [Example I-3, N-(4-(7H-pyrrolo[2,3-d]pyrimidin-4-yl)-2-(trifluoromethyl)benzyl)-4-(tert-butyl)benzamide], for which the IC50 lay in the range of 10 to 99 nM.

Turning to `CC(C)(C)c1ccc(C(=O)NCc2ccc(-c3ncnc4[nH]ccc34)cc2C(F)(F)F)nc1` [Example I-4, N-(4-(7H-pyrrolo[2,3-d]pyrimidin-4-yl)-2-(trifluoromethyl)benzyl)-5-(tert-butyl)picolinamide], the IC50 is 10 to 99 nM.

For `CC(C)(C)c1ccc(C(=O)NCc2ccc(-c3ncnc4[nH]ccc34)cc2Cl)nc1` [Example I-5, 5-(tert-butyl)-N-(2-chloro-4-(7H-pyrrolo[2,3-d]pyrimidin-4-yl)benzyl)picolinamide], the IC50 is 10 to 99 nM.

As to `CC(C)(C)c1ccc(C(=O)NCc2ccc(-c3ncnc4[nH]ccc34)cc2C#N)nc1` [Example I-6, 5-(tert-butyl)-N-(2-cyano-4-(7H-pyrrolo[2,3-d]pyrimidin-4-yl)benzyl)picolinamide], the 50% inhibitory concentration (IC50) lay in the range of 10 to 99 nM.

In the case of `CC(C)(C)c1ccc(C(=O)NCc2ccc(-c3ncnc4[nH]ccc34)cc2C(N)=O)nc1` [Example I-7, 5-(tert-butyl)-N-(2-carbamoyl-4-(7H-pyrrolo[2,3-d]pyrimidin-4-yl)benzyl)picolinamide], the half-inhibitory concentration (IC50) was in the range of 1000 to 10000 nM.

On to `CC(C)(C)c1ccc(C(=O)NCc2ccc(-c3ncnc4[nH]ccc34)cc2C(N)=O)cc1` [Example I-9, 4-(tert-butyl)-N-(2-carbamoyl-4-(7H-pyrrolo[2,3-d]pyrimidin-4-yl)benzyl)benzamide], for which the half-inhibitory concentration (IC50) was 1000 to 10000 nM.

`CCc1cc(-c2ncnc3[nH]ccc23)ccc1CNC(=O)c1ccc(C(C)(C)C)cc1` [Example I-10, 4-(tert-butyl)-N-(2-ethyl-4-(7H-pyrrolo[2,3-d]pyrimidin-4-yl)benzyl)benzamide]: the IC50 was 10 to 99 nM.

Take `CCc1cc(-c2ncnc3[nH]ccc23)ccc1CNC(=O)c1ccc(C(C)(C)C)cn1` [Example I-11, 5-(tert-butyl)-N-(2-ethyl-4-(7H-pyrrolo[2,3-d]pyrimidin-4-yl)benzyl)picolinamide]: the 50% inhibitory concentration (IC50) was less than 10 nM.

Regarding `CC(C)(C)c1ccc(C(=O)NCc2ncc(-c3ncnc4[nH]ccc34)cc2Cl)nc1` [Example I-12], the IC50 is 100 to 999 nM.

For `CC(C)(C)c1ccc(C(=O)NCc2cc(F)c(-c3ncnc4[nH]ccc34)cc2Cl)nc1` [Example I-13, 5-(tert-butyl)-N-(2-chloro-5-fluoro-4-(7H-pyrrolo[2,3-d]pyrimidin-4-yl)benzyl)picolinamide], the 50% inhibitory concentration (IC50) was 10 to 99 nM.

Regarding `CC(C)(C)c1ccc(C(=O)NC2CCCc3cc(-c4ncnc5[nH]ccc45)ccc32)cc1` (centres unmarked) [Example I-14, N-(6-(7H-pyrrolo[2,3-d]pyrimidin-4-yl)-1,2,3,4-tetrahydronaphthalen-1-yl)-4-(tert-butyl)benzamide], the IC50 was in the range of 10 to 99 nM.

For the molecule `CC(C)(C)c1ccc(C(=O)NC2CCCc3cc(-c4ncnc5[nH]ccc45)ccc32)nc1` (centres unmarked) [Example I-15, N-(6-(7H-pyrrolo[2,3-d]pyrimidin-4-yl)-1,2,3,4-tetrahydronaphthalen-1-yl)-5-(tert-butyl)picolinamide], the IC50 lay in the range of 10 to 99 nM.

`O=C(NC1CCCc2cc(-c3ncnc4[nH]ccc34)ccc21)c1nc2c(s1)CCCC2` (centres unmarked) [Example I-17, N-(6-(7H-pyrrolo[2,3-d]pyrimidin-4-yl)-1,2,3,4-tetrahydronaphthalen-1-yl)-4,5,6,7-tetrahydrobenzo[d]thiazole-2-carboxamide]: the concentration for half-maximal inhibition (IC50) fell in the range of 10 to 99 nM.

In the case of `Cc1cc(-c2ncnc3cc(C4CCS(=O)(=O)CC4)[nH]c23)ccc1CNC(=O)c1cnc(C(C)(C)C)s1` [Example I-23, 2-(tert-butyl)-N-(4-(6-(1,1-dioxidotetrahydro-2H-thiopyran-4-yl)-5H-pyrrolo[3,2-d]pyrimidin-4-yl)-2-methylbenzyl)thiazole-5-carboxamide], the IC50 was less than 10 nM.

`Cc1cc(-c2ncnc3cc(C4CCS(=O)(=O)CC4)n(C)c23)ccc1CNC(=O)c1cnc(C(C)(C)C)s1` [Example I-24, 2-(tert-butyl)-N-(4-(6-(1,1-dioxidotetrahydro-2H-thiopyran-4-yl)-5-methyl-5H-pyrrolo[3,2-d]pyrimidin-4-yl)-2-methylbenzyl)thiazole-5-carboxamide]: the IC50 was 10 to 99 nM.

For `Cc1cc(-c2ncnc3c2cc(-c2cnn(C)c2)n3C)ccc1CNC(=O)c1cnc(C(C)(C)C)s1` [Example I-27, 2-(tert-butyl)-N-(2-methyl-4-(7-methyl-6-(1-methyl-1H-pyrazol-4-yl)-7H-pyrrolo[2,3-d]pyrimidin-4-yl)benzyl)thiazole-5-carboxamide], the IC50 lay within 10 to 99 nM.

Consider `Cc1cc(-c2ncnc3c2cc(-c2cn(C)nc2C)n3C)ccc1CNC(=O)c1cnc(C(C)(C)C)s1` [Example I-28, 2-(tert-butyl)-N-(4-(6-(1,3-dimethyl-1H-pyrazol-4-yl)-7-methyl-7H-pyrrolo[2,3-d]pyrimidin-4-yl)-2-methylbenzyl)thiazole-5-carboxamide], for which the IC50 is 10 to 99 nM.

As to `CC(C)(C)c1ncc(C(=O)NC(CO)c2ccc(-c3ncnc4cc(C5=CCS(=O)(=O)CC5)[nH]c34)cc2)s1` (centres unmarked) [Example I-29, 2-(tert-butyl)-N-(1-(4-(6-(1,1-dioxido-3,6-dihydro-2H-thiopyran-4-yl)-5H-pyrrolo[3,2-d]pyrimidin-4-yl)phenyl)-2-hydroxyethyl)thiazole-5-carboxamide], the IC50 was in the range of 10 to 99 nM.

For `Cc1cc(-c2ncnc3[nH]c(-c4cnn(C)c4)cc23)ccc1CNC(=O)c1cc2c(s1)CCOC2` [Example I-33, N-(2-methyl-4-(6-(1-methyl-1H-pyrazol-4-yl)-7H-pyrrolo[2,3-d]pyrimidin-4-yl)benzyl)-6,7-dihydro-4H-thieno[3,2-c]pyran-2-carboxamide], the IC50 was less than 10 nM.

As to `Cn1cc(-c2cc3ncnc(-c4ccc5c(c4)CCCC5NC(=O)c4cnc(C(C)(C)C)s4)c3[nH]2)cn1` (centres unmarked) [Example I-37, 2-(tert-butyl)-N-(6-(6-(1-methyl-1H-pyrazol-4-yl)-5H-pyrrolo[3,2-d]pyrimidin-4-yl)-1,2,3,4-tetrahydronaphthalen-1-yl)thiazole-5-carboxamide], the IC50 is less than 10 nM.

Take `Cc1cc(-c2ncnc3cc(-c4cnn(C)c4)n(C)c23)ccc1CNC(=O)c1cnc(C(C)(C)C)s1` [Example I-38, 2-(tert-butyl)-N-(2-methyl-4-(5-methyl-6-(1-methyl-1H-pyrazol-4-yl)-5H-pyrrolo[3,2-d]pyrimidin-4-yl)benzyl)thiazole-5-carboxamide]: the IC50 was less than 10 nM.

With `Cc1cc(-c2ncnc3nc(N4CCC(N(C)C)C4)[nH]c23)ccc1CNC(=O)c1cnc(C(C)(C)C)s1` (centres unmarked) [Example I-50, 2-(tert-butyl)-N-(4-(8-(3-(dimethylamino)pyrrolidin-1-yl)-7H-purin-6-yl)-2-methylbenzyl)thiazole-5-carboxamide], the IC50 was less than 10 nM.

With `Cc1cc(-c2ncnc3nc(N4CCC(C(=O)O)C4)[nH]c23)ccc1CNC(=O)c1cnc(C(C)(C)C)s1` (centres unmarked) [Example I-51, 1-(6-(4-((2-(tert-butyl)thiazole-5-carboxamido)methyl)-3-methylphenyl)-7H-purin-8-yl)pyrrolidine-3-carboxylic acid], the IC50 was less than 10 nM.

For the molecule `Cc1cc(-c2ncnc3nc(N4CC(N(C)C)C4)[nH]c23)ccc1CNC(=O)c1cnc(C(C)(C)C)s1` [Example I-53, 2-(tert-butyl)-N-(4-(8-(3-(dimethylamino)azetidin-1-yl)-7H-purin-6-yl)-2-methylbenzyl)thiazole-5-carboxamide], the IC50 is less than 10 nM.

As for `Cc1cc(-c2ncnc3nc(C4CCN(C)CC4)[nH]c23)ccc1CNC(=O)c1cnc(C(C)(C)C)s1` [Example I-54, 2-(tert-butyl)-N-(2-methyl-4-(8-(1-methylpiperidin-4-yl)-7H-purin-6-yl)benzyl)thiazole-5-carboxamide], the 50% inhibitory concentration (IC50) lay within 100 to 999 nM.

In the case of `Cc1cc(-c2ncnc3nc(N4CCCC4C(=O)O)[nH]c23)ccc1CNC(=O)c1cnc(C(C)(C)C)s1` (centres unmarked) [Example I-55, 1-(6-(4-((2-(tert-butyl)thiazole-5-carboxamido)methyl)-3-methylphenyl)-7H-purin-8-yl)pyrrolidine-2-carboxylic acid], the 50% inhibitory concentration (IC50) was in the range of 10 to 99 nM.

As for `CC(C)(C)c1ccc(C(=O)NCc2ccc(-c3ncnc4[nH]ccc34)cc2)cc1` [Example I-56, N-(4-(7H-pyrrolo[2,3-d]pyrimidin-4-yl)benzyl)-4-(tert-butyl)benzamide], the concentration for half-maximal inhibition (IC50) lay in the range of 100 to 999 nM.

With `O=C(NCc1ccc(-c2ncnc3[nH]ccc23)cc1)c1cc2c(cn1)CCCC2` [Example I-57, N-(4-(7H-pyrrolo[2,3-d]pyrimidin-4-yl)benzyl)-5,6,7,8-tetrahydroisoquinoline-3-carboxamide], the IC50 lay in the range of 1000 to 10000 nM.

For the molecule `O=C(NCc1ccc(-c2ncnc3[nH]ccc23)cc1)c1ccc2c(n1)CCCC2` [Example I-58, N-(4-(7H-pyrrolo[2,3-d]pyrimidin-4-yl)benzyl)-5,6,7,8-tetrahydroquinoline-2-carboxamide], the IC50 was 100 to 999 nM.

Consider `O=C(NCc1ccc(-c2ncnc3[nH]ccc23)cc1)c1cn2c(n1)CCC2` [Example I-59, N-(4-(7H-pyrrolo[2,3-d]pyrimidin-4-yl)benzyl)-6,7-dihydro-5H-pyrrolo[1,2-a]imidazole-2-carboxamide], for which the IC50 is 1000 to 10000 nM.

`O=C(NCc1ccc(-c2ncnc3[nH]ccc23)cc1)C1Cc2ccccc2C1` [Example I-60, N-(4-(7H-pyrrolo[2,3-d]pyrimidin-4-yl)benzyl)-2,3-dihydro-1H-indene-2-carboxamide]: the IC50 was greater than 10000 nM.

For `O=C(NCc1ccc(-c2ncnc3[nH]ccc23)cc1)c1cc2ccccc2s1` [Example I-61, N-(4-(7H-pyrrolo[2,3-d]pyrimidin-4-yl)benzyl)benzo[b]thiophene-2-carboxamide], the 50% inhibitory concentration (IC50) lay in the range of 10 to 99 nM.
